pIC50: −log10 of the molar value.
Target: T1, Avi-KRAS G12C (1-169) GppNHp/RAF1 RBD-3×FLAG (52-151) (Homo sapiens, UniProt P01116, G12C)
T1 construct: Avi-KRAS G12C (1-169) GppNHp
Assay: KRAS G12C-effector (RAF1 RBD) protein:protein interaction HTRF disruption assay
Format: biochemical
Conditions: PPI HTRF
Experimental: A protein:protein interaction (PPI) Homogeneous Time Resolved Fluorescence (HTRF) assay was used to determine the effectiveness of compounds of the present disclosure in disrupting KRAS G12C protein and effector (RAF1) binding.
The HTRF assay used the following reagents and proteins: 50 nM Avi-KRAS G12C (1-169) GppNHp/RAF1 RBD-3×FLAG (52-151); 75 nM Avi-RAF1 RBD-3×FLAG; Assay Buffer: 50 mM Tris pH 7.5, 100 mM NaCl, 5 mM MgCl2, 0.1% BSA, 0.01% Tween 20, 10% DMSO; Bead Buffer: 50 mM Tris pH 7.5, 0.01% Tween 20; Assay volume: 20 μL (384 well plate-low volume format); and Compound titration: 30-0.02 μM, 3× dilution series.
The HTRF assay employed the following protocol:
Compounds were dispensed in assay plate (384-well, Grenier Bione #784075) using Echo (model 555) with dose response settings: 200 nL final volume, titration from 100 μM as a 10-point dilution series. KRAS proteins were prepared in assay buffer, and dispensed on plates, 5 μL per well, then incubated for 1 h at room temperature, with 700 rpm shaking. RAF1 RBD were prepared in assay buffer, dispensed onto plates, 5 μL per well, and then incubated for 1 h at room temperature, with 700 rpm shaking. Reagent mix was then prepared and dispensed on plates, 10 μL per well, and then incubated for 1 h at room temperature, with 700 rpm shaking.
Plates were analyzed on an Envision plate reader using the following setting: Excitation 320 nm, Bandwidth 75 nm, Emission 615 nm, Bandwidth 85 nm; Gain 100%; Flashes 100; Lag 60 μs. Data was reported as percentage of activity, with DMSO as 100%. Data was plotted and analyzed using Prism 8.

T1 sequence (P01116 1-169 isoform P01116-2 G12C limits assumed): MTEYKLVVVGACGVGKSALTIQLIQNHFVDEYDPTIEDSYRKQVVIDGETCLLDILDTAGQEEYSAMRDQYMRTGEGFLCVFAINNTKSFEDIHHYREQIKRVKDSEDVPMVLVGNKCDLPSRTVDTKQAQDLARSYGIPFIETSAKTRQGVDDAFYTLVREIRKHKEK

SMILES | pIC50
C=CC(=O)N1CC[C@@H](N(C)c2nc(OC[C@@H]3CCCN3C)nc3c(F)c(-c4ccc(F)c5sc(N)c(C#N)c45)ncc23)[C@H]1COC [Compound 26] | ≥ 6.30
C=CC(=O)N1CC[C@@H](N(C)c2nc(OCCOC)nc3c(F)c(-c4ccc(F)c5sc(N)c(C#N)c45)ncc23)[C@H]1C [Compound 31] | 5.30 to 6.30
C=CC(=O)N1CC[C@@H](N(C)c2nc(OC)nc3c(F)c(-c4ccc(F)c5sc(N)c(C#N)c45)ncc23)[C@H]1C [Compound 32] | 4.70 to 5.30
C=CC(=O)N1CC[C@@H](N(C)c2nc(OCCO)nc3c(F)c(-c4ccc(F)c5sc(N)c(C#N)c45)ncc23)[C@H]1C [Compound 35] | 4.70 to 5.30
C=CC(=O)N1CC[C@@H](N(C)c2ncnc3c(F)c(-c4ccc(F)c5sc(N)c(C#N)c45)ncc23)[C@H]1C [Compound 36] | 4.70 to 5.30

Second part, the compound after the results:

pIC50 | SMILES
≥ 6.30 | C=CC(=O)N1CC[C@@H](N(C)c2nc(OC[C@@H]3CC4(CC4)CN3C)nc3c(F)c(-c4ccc(F)c5sc(N)c(C#N)c45)ncc23)[C@H]1COC [Compound 21]
≥ 6.30 | C=CC(=O)N1CC[C@@H](N(C)c2nc(OC[C@@H]3CCCN3C)nc3c(F)c(-c4ccc(F)c5sc(N)c(C#N)c45)ncc23)[C@H]1C [Compound 22]
≥ 6.30 | C=CC(=O)N1CC[C@@H](N(C)c2nc(OC[C@@H]3CC4(CC4)CN3C)nc3c(F)c(-c4ccc(F)c5sc(N)c(C#N)c45)ncc23)[C@H]1C [Compound 24]

From US20250270206A1, “COMPOSITIONS AND METHODS FOR INHIBITION OF RAS” (TheRas, Inc., priority 2022, published 2025)
